# Values of other authors in patent US10696827B2, “Polyolefin composition comprising an antimicrobial additive” (SABIC GLOBAL TECHNOLOGIES B.V., priority 2015, dated 2020).
# Test system: Staphylococcus aureus
# Conditions: >0.4% of additive in LDPE catheter, rabbits, subcutaneous
smiles,measurement,value
CCCCCCc1ccc(O)cc1O [4-n-hexyl resorcinol],infection,little to no infection
